According to patent US8466188B2, “Use of spiro-oxindole compounds as therapeutic agents” (Xenon Pharmaceuticals Inc., priority 2006, dated 2013):

Key:
sodium channel = assay: Guanidine influx assay (14C-guanidine radiotracer flux) in a known cell line that expresses a sodium channel; format: cell-based, human or rat
Description: This example describes an in vitro assay for testing and profiling test agents against human or rat sodium channels stably expressed in cells of either an endogenous or recombinant origin.
The guanidine influx assay is a radiotracer flux assay used to determine ion flux activity of sodium channels in a high-throughput microplate-based format. The assay uses ^14C-guanidine hydrochloride in combination with various known sodium channel modulators, to assay the potency of test agents. Potency is determined by an IC50 calculation. Selectivity is determined by comparing potency of the compound for the channel of interest to its potency against other sodium channels (also called ‘selectivity profiling’).
Each of the test agents is assayed against cells that express the sodium channel of interest. Voltage gated sodium channels are either TTX sensitive or insensitive. This property is useful when evaluating the activities of a channel of interest when it resides in a mixed population with other sodium channels. The following Table 1 lists certain cell lines which are useful in screening for a certain sodium channel activity in the presence or absence of TTX.
It is also possible to employ recombinant cells expressing these sodium channels.
Cells expressing the channel of interest are grown according to the supplier or in the case of a recombinant cell in the presence of selective growth media such as G418 (Gibco/Invitrogen). The cells are disassociated from the culture dishes with an enzymatic solution (1×) Trypsin/EDTA (Gibco/Invitrogen) and analyzed for density and viability using haemocytometer (Neubauer). Disassociated cells are washed and resuspended in their culture media then plated into Scintiplates (Beckman Coulter Inc.) (approximately 100,000 cells/well) and incubated at 37° C./5% CO2 for 20-24 hours. After an extensive wash with Low sodium HEPES-buffered saline solution (LNHBSS) (150 mM Choline Chloride, […] (Sigma), 1 mM Calcium Chloride, 5 mM Potassium Chloride, 1 mM Magnesium Chloride, 10 mM Glucose) agents diluted with LNHBSS are added to each well. (Varying concentrations of test agent may be used). The activation/radiolabel mixture contains aconitine (Sigma), and ^14C-guanidine hydrochloride (ARC).
After loading the cells with test agent and activation/radiolabel mixture, the Scintiplates are incubated at ambient temperature. Following the incubation, the Scintplates are extensively washed with LNHBSS supplemented with guanidine (Sigma). The Scintiplates are dried and then counted using a Wallac MicroBeta TriLux (Perkin-Elmer Life Sciences). The ability of the test agent to block sodium channel activity is determined by comparing the amount of ^14C-guanidine present inside the cells expressing the different sodium channels.
IC50 value of a test agent for a specific sodium channel may be determined using the above general method. […] The IC50 curve is calculated using the 4 Parameter Logistic Model or Sigmoidal Dose-Response Model formula (fit=(A+((B−A)/(1+((C/x)^D)))).
The fold selectivity, factor of selectivity or multiple of selectivity, is calculated by dividing the IC50 value of the test sodium channel by the reference sodium channel, for example, Nav1.5.
The Example numbers provided in Table 2 correspond to the Example numbers herein: […]

Nav1.2 in PC12 cells = Nav1.2 in PC12 cells (Rattus norvegicus, UniProt P04775)
[1] = system: Nav1.4 and 1.5 in L6 cells; format: cell-based, rat
[2] = system: Nav1.8 in SK-N-BE2C cells; format: cell-based, human
Nav1.4 in CHO-K1 cells = format: cell-based, Chinese hamster

Sequence of Nav1.2 in PC12 cells (P04775 whole entry, looked up): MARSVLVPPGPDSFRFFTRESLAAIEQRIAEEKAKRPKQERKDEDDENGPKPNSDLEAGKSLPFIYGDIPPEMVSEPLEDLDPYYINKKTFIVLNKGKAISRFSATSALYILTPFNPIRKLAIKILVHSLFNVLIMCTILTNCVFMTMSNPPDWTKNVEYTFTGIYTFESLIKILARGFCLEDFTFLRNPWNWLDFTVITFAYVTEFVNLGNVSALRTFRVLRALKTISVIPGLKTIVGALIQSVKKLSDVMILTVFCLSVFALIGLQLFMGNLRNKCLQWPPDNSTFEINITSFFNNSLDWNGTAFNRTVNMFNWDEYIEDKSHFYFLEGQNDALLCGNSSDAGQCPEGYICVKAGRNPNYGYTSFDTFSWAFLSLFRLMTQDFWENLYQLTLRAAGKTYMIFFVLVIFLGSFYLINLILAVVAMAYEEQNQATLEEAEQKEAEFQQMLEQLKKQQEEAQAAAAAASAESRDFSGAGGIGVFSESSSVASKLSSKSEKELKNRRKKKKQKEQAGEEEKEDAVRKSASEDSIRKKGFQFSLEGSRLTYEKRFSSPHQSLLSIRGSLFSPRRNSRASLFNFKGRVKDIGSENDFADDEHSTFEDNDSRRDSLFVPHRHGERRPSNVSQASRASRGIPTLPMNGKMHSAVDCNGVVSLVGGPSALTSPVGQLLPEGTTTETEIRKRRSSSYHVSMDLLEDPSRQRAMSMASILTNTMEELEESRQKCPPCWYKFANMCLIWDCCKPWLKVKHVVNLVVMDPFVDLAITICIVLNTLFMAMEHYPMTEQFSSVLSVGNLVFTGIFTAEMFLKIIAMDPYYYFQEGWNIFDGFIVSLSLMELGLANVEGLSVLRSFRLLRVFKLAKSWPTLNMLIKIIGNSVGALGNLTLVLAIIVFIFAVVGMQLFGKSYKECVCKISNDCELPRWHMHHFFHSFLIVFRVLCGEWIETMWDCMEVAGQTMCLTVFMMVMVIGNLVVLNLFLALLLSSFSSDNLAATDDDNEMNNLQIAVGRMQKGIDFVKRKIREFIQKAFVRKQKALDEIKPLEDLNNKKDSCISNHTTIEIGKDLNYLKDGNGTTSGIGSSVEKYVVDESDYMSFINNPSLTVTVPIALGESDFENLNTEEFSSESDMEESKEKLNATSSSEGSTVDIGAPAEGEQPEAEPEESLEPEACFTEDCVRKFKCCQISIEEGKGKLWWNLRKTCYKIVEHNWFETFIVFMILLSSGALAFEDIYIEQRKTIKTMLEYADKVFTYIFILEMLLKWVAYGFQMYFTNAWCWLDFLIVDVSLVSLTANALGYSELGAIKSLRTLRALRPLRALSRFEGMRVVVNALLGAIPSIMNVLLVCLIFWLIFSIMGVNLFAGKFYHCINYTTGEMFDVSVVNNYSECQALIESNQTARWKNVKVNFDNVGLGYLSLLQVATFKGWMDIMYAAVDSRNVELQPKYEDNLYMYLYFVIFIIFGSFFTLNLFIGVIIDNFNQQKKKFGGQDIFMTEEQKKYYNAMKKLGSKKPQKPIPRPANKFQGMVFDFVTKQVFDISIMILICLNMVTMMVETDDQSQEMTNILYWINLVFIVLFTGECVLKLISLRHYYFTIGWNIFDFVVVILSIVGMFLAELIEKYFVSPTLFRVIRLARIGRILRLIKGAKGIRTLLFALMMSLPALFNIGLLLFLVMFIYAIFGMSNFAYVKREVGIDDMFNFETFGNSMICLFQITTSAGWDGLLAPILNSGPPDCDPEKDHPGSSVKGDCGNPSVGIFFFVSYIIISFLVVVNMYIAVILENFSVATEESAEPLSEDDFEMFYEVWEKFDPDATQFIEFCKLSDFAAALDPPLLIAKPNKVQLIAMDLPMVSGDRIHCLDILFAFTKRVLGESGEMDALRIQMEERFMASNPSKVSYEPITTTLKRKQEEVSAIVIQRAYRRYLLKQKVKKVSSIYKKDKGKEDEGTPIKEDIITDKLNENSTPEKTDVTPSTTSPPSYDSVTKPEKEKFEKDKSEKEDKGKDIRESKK

| Structure (SMILES) | melting point | IC50 (sodium channel) | further results |
| --- | --- | --- | --- |
| O=C1N(CCC2CC2)c2ccccc2C12COc1cc3c(cc12)OCO3 (centres unmarked) [Example 1, 1′-(2-cyclopropylethyl)spiro[furo[2,3-f][1,3]benzodioxole-7,3′-indol]-2′(1′H)-one] | 125 to 127 °C | 1 to 10 nM | – |
| CCCCCN1C(=O)C2(OCc3cc4c(cc32)OCO4)c2ccccc21 (centres unmarked) [Example 20, 1′-pentyl-7H-spiro[furo[3,4-f][1,3]benzodioxole-5,3′-indol]-2′(1′H)-one] | 113 to 115 °C | 1 to 10 nM | – |
| CCCCCN1C(=O)C2(COc3cc4c(cc32)OCO4)c2c(C#N)cccc21 (centres unmarked) [Example 30, 2′-oxo-1′-pentyl-1′,2′-dihydrospiro[furo[2,3-f][1,3]benzodioxole-7,3′-indole]-4′-carbonitrile] | 128 to 129 °C | 10 to 100 nM | – |
| CCCCCN1C(=O)C2(COc3cc(-c4ccncc4)ccc32)c2ccccc21 (centres unmarked) [Example 38, 1′-pentyl-6-pyridin-4-ylspiro[1-benzofuran-3,3′-indol]-2′(1′H)-one] | 107 to 110 °C | 100 to 1000 nM | – |
| CCCCCN1C(=O)C2(COc3ccc(Oc4ccccc4)cc32)c2ccccc21 (centres unmarked) [Example 41, 1′-pentyl-5-phenoxyspiro[1-benzofuran-3,3′-indol]-2′(1′H)-one] | – | > 1000 nM | – |
| CCCCCN1C(=O)C2(COc3ccc(-c4cccnc4)cc32)c2ccccc21 (centres unmarked) [Example 48, 1′-pentyl-5-pyridin-3-ylspiro[1-benzofuran-3,3′-indol]-2′(1′H)-one] | – | 100 to 1000 nM | – |
| CCCCCN1C(=O)C2(COc3ccc(-c4cncnc4)cc32)c2ccccc21 (centres unmarked) [Example 49, 1′-pentyl-5-pyrimidin-5-ylspiro[1-benzofuran-3,3′-indol]-2′(1′H)-one] | 115 to 117 °C | 100 to 1000 nM | – |
| CCCCCN1C(=O)C2(COc3ccc(-c4ccncc4)cc32)c2ccccc21 (centres unmarked) [Example 50, 1′-pentyl-5-pyridin-4-ylspiro[1-benzofuran-3,3′-indol]-2′(1′H)-one] | – | 100 to 1000 nM | – |
| CCCCCN1C(=O)C2(COc3ccc(C#N)cc32)c2ccccc21 (centres unmarked) [Example 51, 2′-oxo-1′-pentyl-1′,2′-dihydrospiro[1-benzofuran-3,3′-indole]-5-carbonitrile] | – | 100 to 1000 nM | – |
| O=C(CN1C(=O)C2(COc3ccc(-c4cccnc4)cc32)c2ccccc21)Nc1ccccc1F (centres unmarked) [Example 52, N-(2-fluorophenyl)-2-(2′-oxo-5-pyridin-3-ylspiro[1-benzofuran-3,3′-indol]-1′(2′H)-yl)acetamide] | 98 to 100 °C | 100 to 1000 nM | – |
| O=C1N(C(c2ccccc2)c2ccccc2)c2ccccc2C12COc1ccc(-c3cccnc3)cc12 (centres unmarked) [Example 54, 1′-(diphenylmethyl)-5-pyridin-3-ylspiro[1-benzofuran-3,3′-indol]-2′(1′H)-one] | 204 to 207 °C | > 1000 nM | – |
| CC(C)(C)OC(=O)N1CCCC(c2ccc3c(c2)C2(CO3)C(=O)Nc3ccccc32)C1 (centres unmarked) [Example 55, tert-butyl 3-(2′-oxo-1′,2′-dihydrospiro[1-benzofuran-3,3′-indol]-5-yl)piperidine-1-carboxylate] | 120 to 123 °C | > 1000 nM | – |
| O=C(NCCN1C(=O)C2(COc3cc4c(cc32)OCO4)c2ccccc21)c1ccccc1OC(F)(F)F (centres unmarked) [Example 59, N-[2-(2′-oxospiro[furo[2,3-f][1,3]benzodioxole-7,3′-indol]-1′(2′H)-yl)ethyl]-2-(trifluoromethoxy)benzamide] | 183 to 184 °C | 100 to 1000 nM | – |
| NC1=N[C@H](O)[C@H]2[C@H]3O[C@]4(O)O[C@@H]([C@@H](O)[C@@]2(N1)[C@@H]4O)[C@]3(O)CO [TTX] | – | – | block of [14C] Guanidine influx by TTX (Nav1.2 in PC12 cells): Guanidine influx was completely; block of [14C] Guanidine influx by TTX [1]: partially blocked by TTX (Nav1.5; block of [14C] Guanidine influx by TTX [2]: TTX partially blocked influx; block of [14C] Guanidine influx by TTX (Nav1.4 in CHO-K1 cells): Guanidine influx was completely |
